According to publication PMC10897480, “Molecular details of ruthenium red pore block in TRPV channels” (EMBO Reports, 2024):
Values belong to the molecule of their own block, whether it stands above or below them.

How the values were obtained:
[1] = biological target: T1, TRPV2 (Rattus norvegicus, UniProt Q9WUD2); assay: cryo-EM structure ([…] Å, with RR); activates whole-cell currents at […]
T1 construct: wild-type rat TRPV2, C-terminal 1D4 tag, in nanodiscs
T1 sequence (Q9WUD2 1-761): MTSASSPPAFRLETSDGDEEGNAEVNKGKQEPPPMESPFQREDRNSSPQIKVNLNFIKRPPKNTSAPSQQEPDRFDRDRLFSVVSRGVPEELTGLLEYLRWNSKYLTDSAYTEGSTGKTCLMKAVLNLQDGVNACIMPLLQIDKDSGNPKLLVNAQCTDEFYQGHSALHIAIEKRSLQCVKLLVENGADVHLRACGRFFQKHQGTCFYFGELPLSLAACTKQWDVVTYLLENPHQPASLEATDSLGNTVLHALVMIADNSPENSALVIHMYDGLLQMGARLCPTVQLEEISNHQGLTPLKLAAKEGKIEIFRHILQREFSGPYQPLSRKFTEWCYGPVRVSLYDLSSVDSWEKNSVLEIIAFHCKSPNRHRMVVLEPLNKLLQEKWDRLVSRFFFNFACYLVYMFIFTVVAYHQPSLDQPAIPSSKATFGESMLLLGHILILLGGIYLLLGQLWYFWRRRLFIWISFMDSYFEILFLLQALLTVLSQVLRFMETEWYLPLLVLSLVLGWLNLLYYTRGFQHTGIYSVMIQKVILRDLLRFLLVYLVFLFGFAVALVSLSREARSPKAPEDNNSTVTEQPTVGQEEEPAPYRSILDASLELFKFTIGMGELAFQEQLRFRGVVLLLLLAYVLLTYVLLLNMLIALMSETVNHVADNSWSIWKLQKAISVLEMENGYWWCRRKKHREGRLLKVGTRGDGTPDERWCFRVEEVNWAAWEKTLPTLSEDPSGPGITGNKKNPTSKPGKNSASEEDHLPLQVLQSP

[2] = biological target: T2, TRPV5 (Oryctolagus cuniculus, UniProt Q9XSM3); assay: cryo-EM structures (8FFQ with PI([…])P2 added, […] Å; 8FFN without, […] Å); IC50 from whole-cell patch clamp in HEK293 cells; format: cell-based
T2 construct: wild-type rabbit TRPV5, C-terminal 1D4 tag, in nanodiscs
T2 sequence (Q9XSM3 1-730): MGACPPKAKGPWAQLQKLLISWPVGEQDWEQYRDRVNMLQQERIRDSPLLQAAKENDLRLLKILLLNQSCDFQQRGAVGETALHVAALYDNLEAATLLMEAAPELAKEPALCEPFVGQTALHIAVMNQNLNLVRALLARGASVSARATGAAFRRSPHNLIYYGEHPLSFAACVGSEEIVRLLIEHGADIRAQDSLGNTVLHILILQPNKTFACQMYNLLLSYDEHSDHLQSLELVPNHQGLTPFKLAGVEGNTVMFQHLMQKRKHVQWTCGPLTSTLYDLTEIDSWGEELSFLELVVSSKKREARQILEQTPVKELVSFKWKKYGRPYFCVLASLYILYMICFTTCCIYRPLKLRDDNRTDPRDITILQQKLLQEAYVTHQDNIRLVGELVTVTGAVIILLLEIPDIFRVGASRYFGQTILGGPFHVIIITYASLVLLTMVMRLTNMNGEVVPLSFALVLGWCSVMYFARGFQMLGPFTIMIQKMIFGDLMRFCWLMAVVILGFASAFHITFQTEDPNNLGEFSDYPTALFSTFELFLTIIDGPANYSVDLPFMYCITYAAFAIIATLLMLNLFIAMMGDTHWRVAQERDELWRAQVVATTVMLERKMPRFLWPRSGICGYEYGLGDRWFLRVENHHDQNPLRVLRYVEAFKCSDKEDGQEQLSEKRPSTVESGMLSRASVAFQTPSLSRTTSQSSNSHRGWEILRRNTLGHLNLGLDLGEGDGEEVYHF

[3] = biological target: T3, TRPV2 (Rattus norvegicus, UniProt Q9WUD2, M607I); assay: whole-cell patch clamp, inhibition of 2-APB-induced currents; format: cell-based
T3 construct: rat TRPV2 expressed in HEK293T cells
T3 sequence (Q9WUD2 1-761 M607I): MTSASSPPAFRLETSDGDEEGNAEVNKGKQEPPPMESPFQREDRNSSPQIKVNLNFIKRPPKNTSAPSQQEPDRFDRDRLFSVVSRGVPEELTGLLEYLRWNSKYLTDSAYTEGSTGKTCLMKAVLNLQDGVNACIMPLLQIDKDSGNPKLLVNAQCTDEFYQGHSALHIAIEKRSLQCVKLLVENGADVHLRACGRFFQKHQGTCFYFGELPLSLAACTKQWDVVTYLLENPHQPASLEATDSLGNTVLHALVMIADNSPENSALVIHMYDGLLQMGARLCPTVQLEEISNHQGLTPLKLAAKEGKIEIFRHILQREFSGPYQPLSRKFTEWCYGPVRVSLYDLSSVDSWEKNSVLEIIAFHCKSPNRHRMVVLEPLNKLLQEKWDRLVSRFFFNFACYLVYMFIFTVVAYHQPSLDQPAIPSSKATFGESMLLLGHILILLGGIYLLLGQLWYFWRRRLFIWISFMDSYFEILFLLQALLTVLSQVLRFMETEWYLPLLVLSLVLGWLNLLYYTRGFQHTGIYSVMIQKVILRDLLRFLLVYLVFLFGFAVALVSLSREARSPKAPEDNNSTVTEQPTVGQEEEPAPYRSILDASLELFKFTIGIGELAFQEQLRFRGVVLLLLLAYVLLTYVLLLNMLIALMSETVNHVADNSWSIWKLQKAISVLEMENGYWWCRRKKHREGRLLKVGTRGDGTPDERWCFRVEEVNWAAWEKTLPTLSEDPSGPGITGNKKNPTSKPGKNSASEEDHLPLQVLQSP

[4] = biological target: T1, TRPV2; assay: cryo-EM structure ([…] Å, with 2-APB); IC50 from whole-cell patch clamp in HEK293T cells; format: cell-based
[5] = biological target: T4, TRPV2 (Rattus norvegicus, UniProt Q9WUD2, E609Q); assay: whole-cell patch clamp, inhibition of 2-APB-induced currents; format: cell-based
T4 construct: rat TRPV2 expressed in HEK293T cells
T4 sequence (Q9WUD2 1-761 E609Q): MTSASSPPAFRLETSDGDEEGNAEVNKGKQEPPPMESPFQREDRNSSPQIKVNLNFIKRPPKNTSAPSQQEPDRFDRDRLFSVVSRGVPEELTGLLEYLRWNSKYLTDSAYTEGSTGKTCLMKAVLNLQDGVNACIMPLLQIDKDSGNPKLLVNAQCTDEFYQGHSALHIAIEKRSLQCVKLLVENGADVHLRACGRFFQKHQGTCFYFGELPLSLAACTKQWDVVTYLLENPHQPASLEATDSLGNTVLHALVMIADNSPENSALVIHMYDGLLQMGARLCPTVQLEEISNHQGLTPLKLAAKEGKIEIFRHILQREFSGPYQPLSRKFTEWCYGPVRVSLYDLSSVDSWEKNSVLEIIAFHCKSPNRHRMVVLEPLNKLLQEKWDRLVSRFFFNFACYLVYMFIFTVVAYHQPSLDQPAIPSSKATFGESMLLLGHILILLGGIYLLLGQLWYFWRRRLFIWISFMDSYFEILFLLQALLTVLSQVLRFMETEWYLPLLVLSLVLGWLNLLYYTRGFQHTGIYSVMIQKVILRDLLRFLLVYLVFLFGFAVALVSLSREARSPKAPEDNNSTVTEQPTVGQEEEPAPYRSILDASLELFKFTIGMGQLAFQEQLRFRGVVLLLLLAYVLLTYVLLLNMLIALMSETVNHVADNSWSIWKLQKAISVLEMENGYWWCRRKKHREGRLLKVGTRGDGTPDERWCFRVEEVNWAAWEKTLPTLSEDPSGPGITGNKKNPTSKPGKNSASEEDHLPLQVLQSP

[6] = biological target: T5, TRPV5 (Oryctolagus cuniculus, UniProt Q9XSM3, T539A); assay: whole-cell patch clamp, % inhibition at […] RR ([…] at […]); format: cell-based
T5 construct: rabbit TRPV5 expressed in HEK293T cells
T5 sequence (Q9XSM3 1-730 T539A): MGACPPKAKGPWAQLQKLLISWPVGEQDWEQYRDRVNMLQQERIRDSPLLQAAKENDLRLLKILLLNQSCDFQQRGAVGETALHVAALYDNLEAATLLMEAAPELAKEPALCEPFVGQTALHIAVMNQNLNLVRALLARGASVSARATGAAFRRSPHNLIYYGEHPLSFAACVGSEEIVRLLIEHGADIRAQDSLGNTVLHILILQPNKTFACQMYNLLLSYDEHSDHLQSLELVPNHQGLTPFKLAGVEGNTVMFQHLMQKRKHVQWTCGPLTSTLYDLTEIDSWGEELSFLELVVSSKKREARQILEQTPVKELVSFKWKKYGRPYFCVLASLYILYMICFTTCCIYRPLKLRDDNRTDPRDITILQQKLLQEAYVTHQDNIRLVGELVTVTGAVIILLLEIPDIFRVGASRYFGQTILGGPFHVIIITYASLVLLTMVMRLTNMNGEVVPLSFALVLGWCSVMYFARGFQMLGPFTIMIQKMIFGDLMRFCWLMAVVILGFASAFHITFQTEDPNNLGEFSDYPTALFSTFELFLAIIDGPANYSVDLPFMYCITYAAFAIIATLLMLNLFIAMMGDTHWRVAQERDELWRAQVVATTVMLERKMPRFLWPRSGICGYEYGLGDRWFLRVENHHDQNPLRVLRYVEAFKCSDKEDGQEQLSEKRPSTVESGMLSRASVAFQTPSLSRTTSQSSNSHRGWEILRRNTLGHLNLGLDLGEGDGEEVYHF

[7] = biological target: the molecule itself; assay: cryo-EM structure; channel tetramer in MSP2N2/soy polar lipid nanodiscs, 20 mM Hepes pH 8.0, 150 mM NaCl, 2 mM TCEP; with 1 mM ruthenium red, with or without activator (1 mM 2-APB for TRPV2; 400 uM diC8-PI(4,5)P2 for TRPV5)

Molecule: NCCOB(c1ccccc1)c1ccccc1 [2-APB, 2-aminoethoxydiphenyl borate]
cryo-EM structural observation [1]: clear three-lobed density for 2-APB coordinated by His521 and Arg539

IC50 [2]: 0.0137 ± 0.0044 µM
IC50 [3]: 29 ± 5 µM
IC50 [4]: 0.159 ± 0.047 µM
IC50 [5]: 149 ± 111 µM
% inhibition at 10 μM [6]: 94.5 ± 1.5
Molecule: N.N.N.N.N.N.N.N.N.N.N.N.N.N.[Cl-].[Cl-].[Cl-].[Cl-].[Cl-].[Cl-].[O-2].[O-2].[Ru+3].[Ru+3].[Ru+4] [RR, ruthenium red]

B1: wild-type rabbit TRPV5 (natural protein)
chain: MGACPPKAKGPWAQLQKLLISWPVGEQDWEQYRDRVNMLQQERIRDSPLLQAAKENDLRLLKILLLNQSCDFQQRGAVGETALHVAALYDNLEAATLLMEAAPELAKEPALCEPFVGQTALHIAVMNQNLNLVRALLARGASVSARATGAAFRRSPHNLIYYGEHPLSFAACVGSEEIVRLLIEHGADIRAQDSLGNTVLHILILQPNKTFACQMYNLLLSYDEHSDHLQSLELVPNHQGLTPFKLAGVEGNTVMFQHLMQKRKHVQWTCGPLTSTLYDLTEIDSWGEELSFLELVVSSKKREARQILEQTPVKELVSFKWKKYGRPYFCVLASLYILYMICFTTCCIYRPLKLRDDNRTDPRDITILQQKLLQEAYVTHQDNIRLVGELVTVTGAVIILLLEIPDIFRVGASRYFGQTILGGPFHVIIITYASLVLLTMVMRLTNMNGEVVPLSFALVLGWCSVMYFARGFQMLGPFTIMIQKMIFGDLMRFCWLMAVVILGFASAFHITFQTEDPNNLGEFSDYPTALFSTFELFLTIIDGPANYSVDLPFMYCITYAAFAIIATLLMLNLFIAMMGDTHWRVAQERDELWRAQVVATTVMLERKMPRFLWPRSGICGYEYGLGDRWFLRVENHHDQNPLRVLRYVEAFKCSDKEDGQEQLSEKRPSTVESGMLSRASVAFQTPSLSRTTSQSSNSHRGWEILRRNTLGHLNLGLDLGEGDGEEVYHF
notes: Transient receptor potential vanilloid 5 (TRPV5), rabbit, wild type; Homotetramer ('TRPV tetramer', C4 symmetry); No step that removes the 1D4 tag is described; also called rbTRPV5; TRPV5RR; source: S. cerevisiae BJ5457, purified (1D4 antibody beads, eluted with 1D4 peptide; reconstituted into MSP2N2 nanodiscs; SEC)
binding result [7]: binds
